Structures are written as SMILES.

For data set [1], the target named is T1, OATP1B1 (Homo sapiens, UniProt Q9Y6L6).
T1 sequence (Q9Y6L6 1-691): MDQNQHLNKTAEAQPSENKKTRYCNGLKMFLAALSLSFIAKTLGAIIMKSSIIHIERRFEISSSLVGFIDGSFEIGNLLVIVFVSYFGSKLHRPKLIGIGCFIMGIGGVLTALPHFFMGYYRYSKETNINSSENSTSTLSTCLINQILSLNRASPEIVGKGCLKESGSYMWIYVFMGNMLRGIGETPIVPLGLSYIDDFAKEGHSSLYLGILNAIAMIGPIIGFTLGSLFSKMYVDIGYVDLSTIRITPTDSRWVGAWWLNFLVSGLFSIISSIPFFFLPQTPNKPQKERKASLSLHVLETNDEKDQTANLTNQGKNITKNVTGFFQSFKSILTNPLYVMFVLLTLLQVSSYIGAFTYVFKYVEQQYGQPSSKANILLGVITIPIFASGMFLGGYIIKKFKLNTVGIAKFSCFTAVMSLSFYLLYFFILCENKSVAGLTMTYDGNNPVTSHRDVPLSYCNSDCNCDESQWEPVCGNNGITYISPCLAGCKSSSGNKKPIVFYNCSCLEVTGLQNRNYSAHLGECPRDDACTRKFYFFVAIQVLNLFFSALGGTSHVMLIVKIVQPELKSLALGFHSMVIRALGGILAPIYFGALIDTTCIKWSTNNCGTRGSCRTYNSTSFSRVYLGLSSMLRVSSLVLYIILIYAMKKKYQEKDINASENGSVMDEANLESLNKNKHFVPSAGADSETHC
The experiment in a line: Inhibition of OATP1B1-mediated [3H]estrone-3-sulfate uptake in HEK293-OATP1B1 cells. As to the method: (§1) HEK293 cells overexpressing the OCT1, OCT2, OAT1, OAT3, OATP1B1, and OATP1B3 transporters (HEK293-OCT1, -OCT2, -OAT1, -OAT3, -OATP1B1, and -OATP1B3, respectively) and HEK293-mock cells (Corning Life Sciences; Woburn, MA, USA) were used and characterized as previously described.
(§2) HEK293 cells overexpressing drug transporters and HEK293-mock cells were seeded in poly-D-lysine-coated 96-well plates at a density of 10^5 cells/well and were cultured in DMEM supplemented with 10% FBS, 5 mM non-essential amino acids, and 2 mM sodium butyrate in a humidified atmosphere with 8% CO2 at 37 °C.
(§3) To examine the effects of ginsenosides and typical inhibitors on transporter activity, aliquots (100 μL) of HBSS containing the probe substrate and ginsenosides or typical inhibitors were added to the cells after aspirating pre-incubated HBSS. The concentrations and probe substrates were as follows: 0.1 μM [^3H]MPP^+ for OCT1 and OCT2, 0.1 μM [^3H]PAH for OAT1, 0.1 μM [^3H]ES for OAT3 and OATP1B1, and 0.1 μM [^3H]EG for OATP1B3. […] Then the uptake of probe substrates into HEK293-mock cells and HEK293-OCT1, -OCT2, -OAT1, -OAT3, -OATP1B1, and -OATP1B3 cells in the presence and absence of typical inhibitor or each ginsenoside with previously described concentration range was measured for 5 min. Immediately after placing the plates on ice, the cells were washed three times with 100 μL of ice-cold HBSS, followed by lysing with 50 μL of 10% SDS solution and mixing with 150 μL of Optiphase cocktail solution (Perkin Elmer Inc., Boston, MA, USA). The radioactivity of the probe substrates in the cells was determined using a liquid scintillation counter.
(§4) In the inhibition studies, the uptake rate of substrate by HEK293 cells overexpressing the respective transporters was used as the control (100%) and the uptake rate of substrates in the presence of typical inhibitors or ginsenosides expressed as a percentage of the control. The inhibition data were fitted to an inhibitory effect model using Sigma plot (version 10.0; Systat Software Inc., San Jose, CA, USA). IC50 value indicated the half-maximal inhibitory concentration of the inhibitor.

Data set [2] deals with T2, OATP1B3 (Homo sapiens, UniProt Q9NPD5).
T2 sequence (Q9NPD5 1-702): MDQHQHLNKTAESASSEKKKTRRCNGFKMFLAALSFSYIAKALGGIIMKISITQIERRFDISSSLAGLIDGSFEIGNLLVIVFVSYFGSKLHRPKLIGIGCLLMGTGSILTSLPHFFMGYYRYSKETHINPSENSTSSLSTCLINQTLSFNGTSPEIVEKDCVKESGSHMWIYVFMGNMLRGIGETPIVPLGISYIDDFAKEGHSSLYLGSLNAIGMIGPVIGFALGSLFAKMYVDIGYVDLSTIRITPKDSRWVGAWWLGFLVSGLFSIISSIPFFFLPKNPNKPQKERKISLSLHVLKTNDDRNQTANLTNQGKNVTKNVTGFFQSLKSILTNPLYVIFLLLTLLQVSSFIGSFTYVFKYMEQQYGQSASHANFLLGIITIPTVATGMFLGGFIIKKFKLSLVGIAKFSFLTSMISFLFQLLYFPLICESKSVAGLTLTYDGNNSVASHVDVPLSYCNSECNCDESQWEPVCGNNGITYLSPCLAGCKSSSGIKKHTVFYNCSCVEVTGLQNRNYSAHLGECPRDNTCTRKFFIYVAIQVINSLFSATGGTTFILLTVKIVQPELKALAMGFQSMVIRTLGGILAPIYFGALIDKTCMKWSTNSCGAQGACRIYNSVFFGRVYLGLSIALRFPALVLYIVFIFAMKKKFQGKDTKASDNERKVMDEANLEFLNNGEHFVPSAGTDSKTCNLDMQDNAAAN
The experiment in a line: Inhibition of OATP1B3-mediated [3H]estradiol-17β-D-glucuronide uptake in HEK293-OATP1B3 cells. As to the method:
as §1, §2, §3, §4

The nature of data set [3]: Literature rifampin plasma concentration in rats after oral 20 mg/kg. The note with it: oral rifampin 20 mg/kg, from literature plasma concentration and protein binding ref 23, 39, 40. In kind it is in vivo, rat.
On the set-up of data set [4]: method as in PMID 25297453, PMID 22139693, PMID 26725427. The note with it: rats, cited from earlier work.
On the set-up of data set [5]: method as in PMID 25297453, PMID 22139693, PMID 26725427. The note with it: rats ref 23, 39, 40; cited from earlier work.
Data set [6] addresses T1, OATP1B1. The experiment in a line: Inhibition of OATP1B1-mediated valsartan uptake in HEK293-OATP1B1 cells. In kind it is cell-based. Details: host or cells: HEK293. The note with it: 5 μM valsartan, 5 min. As to the method: (§5) Transporter mediated uptake of probe substrates or valsartan was calculated by subtracting the uptake rate of probe substrates or valsartan into HEK293-mock cells from that into HEK293 cells expressing respective transporters.

Data set [7] concerns the target T2, OATP1B3. The experiment in a line: Inhibition of OATP1B3-mediated valsartan uptake in HEK293-OATP1B3 cells. Further details: host or cells: HEK293. Particulars: 5 μM valsartan, 5 min. Format: cell-based. The protocol: as §5

Turning to `CO[C@H]1/C=C/O[C@@]2(C)Oc3c(C)c(O)c4c(O)c(c(/C=N/N5CCN(C)CC5)c(O)c4c3C2=O)NC(=O)/C(C)=C\C=C\[C@H](C)[C@H](O)[C@@H](C)[C@@H](O)[C@@H](C)[C@H](OC(C)=O)[C@@H]1C` [Rifampin, rifampin, reference compound], the IC50 (usually the concentration that gives 50% inhibition) is 28.6 µM at OATP1B1 [1], 0.81 µM against OATP1B3 [2], 13.8 µM at OATP1B1 [6] and 3.6 µM at OATP1B3 [7]. Moreover, the “unbound concentration of rifampin” value in data set [3] lay in the range of 4.7 to 22.9 µM. In addition, the Cmax of rifampin in data set [4] (oral rifampin 20 mg/kg ref 23, 39, 40) was 15700 to 24500 ng/mL. The “plasma concentration of rifampin” value in data set [4] (oral rifampin 20 mg/kg, for 12 h ref 23, 39, 40) is reported as “over 5 μg/mL”. Further, in data set [5], the “protein binding of rifampin” value was 23.1%.

Values taken from article PMC7037682, “Herb–Drug Interaction of Red Ginseng Extract and Ginsenoside Rc with Valsartan in Rats” (Molecules, 2020).
